Each structure is given as a SMILES string. ≈ marks a conversion by molar mass, not a printed value. Bounds are passed on as bounds.

Data set [1] concerns A549. Nature of the data set: MTT antiproliferative assay, A549 cells. In kind it is cell-based. The following applies: Homo sapiens; for inhibition at 2 µg/mL: A549, 2 μg/mL; for inhibition at 2 µg/mL / inhibition at 20 µg/mL: 48 h, MTT, read-out: Antiproliferative activity (growth inhibition, %); for inhibition at 20 µg/mL: A549, 20 μg/mL; for IC50: A549, MTT. The protocol:
(§1) All the cells were seeded in 96-well plates and incubated with 5% CO2 at 37 °C for 24 h. Next, the compounds and the reference were dissolved into the culture medium. The final concentration of DMSO in the medium was less than 0.5%. After the cells were treated with compounds for 48 h, the supernatant was removed and 5 mg/mL of a fresh prepared solution of MTT was added to each well and incubated with the cells at 37 °C for another 4 h. The medium was removed, and 100 μL of testing solution was added to each well. After an overnight incubation with 5% CO2 at 37 °C, the absorbance was measured at 490/630 nm by the microplate reader. The IC50 was calculated using GraphPad Prism version 6.0 software (San Diego, CA, USA) from the non-linear curve.
In general terms: Tetrazolium dyes change colour on reduction, which living cells bring about.

The test system of data set [2] is HepG2. The data set can be described thus: MTT antiproliferative assay, HepG2 cells. It is filed as cell-based. The following applies: Homo sapiens. The method, then: as §1
For data set [3], the system named is Karpas299. Nature of the data set: MTT antiproliferative assay, Karpas299 cells. In kind it is cell-based. The following applies: Homo sapiens, KARPAS-299. The protocol: as §1
Data set [4] deals with MCF-7. The data set can be described thus: MTT antiproliferative assay, MCF-7 cells. The following applies: Homo sapiens, MCF7; MCF-7, MTT. It is filed as cell-based. The method, then:
as §1

Data set [5] relates to PC-3. The data set can be described thus: MTT antiproliferative assay, PC-3 cells. The following applies: Homo sapiens; PC-3, MTT. It is filed as cell-based. The method, then: as §1
For data set [6], the system named is HT29. The data set can be described thus: MTT antiproliferative assay, HT29 cells. In kind it is cell-based. The following applies: Homo sapiens, HT-29; for inhibition at 2 µg/mL: HT29, 2 μg/mL; for inhibition at 2 µg/mL / inhibition at 20 µg/mL: 48 h, MTT, read-out: Antiproliferative activity (growth inhibition, %); for inhibition at 20 µg/mL: HT29, 20 μg/mL; for IC50: HT29, MTT. The method, then:
as §1

Take `C[C@@H](Oc1cc(-c2cnn(C3CCNCC3)c2)cnc1N)c1c(Cl)ccc(F)c1Cl` [Crizotinib, reference compound]: the inhibition (usually the share of the control response that was lost under treatment) at 2 µg/mL in data set [1] was determined as 67.6%; in data set [6], 68.8%. For the same molecule, the inhibition at 20 µg/mL turned out to be 97.3% in data set [1] and 99.8% in data set [6]. The IC50 (commonly the concentration needed to halve the response being measured) is 1.27 µg/mL (≈ 2.82 µM) in data set [1]; 2.15 µg/mL (≈ 4.77 µM) in data set [2]; 0.28 µg/mL (≈ 0.622 µM) in data set [3]; 1.84 µg/mL (≈ 4.09 µM) in data set [4]; 3.3 µg/mL (≈ 7.33 µM) in data set [5]; 0.67 µg/mL (≈ 1.49 µM) in data set [6].
On to `CC1(C)C2CC[C@]3(C)[C@H](C(=O)C=C4[C@@H]5C[C@@](C)(C(=O)O)CC[C@]5(C)CC[C@]43C)[C@@]2(C)CC[C@@H]1OC(=O)Nc1cccc(Cl)c1` (stereo partly drawn) [3e, 3β-(((3-chlorophenyl)carbamoyl)oxy)-11-oxo-olean-12-en-30-oic acid], for which the inhibition at 2 µg/mL in data set [1] worked out at 14.3%; in data set [6], 18.8%. For the same molecule, the figures for the inhibition at 20 µg/mL in data set [1] and in data set [6] were 74.9% and 96.4%, respectively. The 50% inhibitory concentration (IC50) in data set [1] worked out at 11.3 µg/mL (≈ 18.2 µM); in data set [2] it was 11.9 µg/mL (≈ 19.1 µM); in data set [3], 7.31 µg/mL (≈ 11.7 µM); in data set [4] it was 8.51 µg/mL (≈ 13.6 µM); in data set [5] it was 9.75 µg/mL (≈ 15.6 µM); in data set [6], 10.9 µg/mL (≈ 17.5 µM).
Regarding `CC1(C)C2CC[C@]3(C)[C@H](C(=O)C=C4[C@@H]5C[C@@](C)(C(=O)O)CC[C@]5(C)CC[C@]43C)[C@@]2(C)CC[C@@H]1OC(=O)Nc1cc(Cl)cc(Cl)c1` (stereo partly drawn) [3c, 3β-(((3,5-dichlorophenyl)carbamoyl)oxy)-11-oxo-olean-12-en-30-oic acid], the melting point (as a rule, the temperature, or range, at which the solid turns liquid) is 236.1 to 237.7 °C. Also, in data set [1], the inhibition at 2 µg/mL is 18.5%; the inhibition at 20 µg/mL came to 95.4%; the midpoint of inhibition, the IC50, lay at 12.3 µg/mL (≈ 18.6 µM). Further, the concentration for half-maximal inhibition (IC50) in data set [2] was 10.7 µg/mL (≈ 16.2 µM). Besides, in data set [3], the IC50 stood at 15.5 µg/mL (≈ 23.5 µM). In data set [4], this molecule gave an IC50 of 5.53 µg/mL (≈ 8.4 µM). Also, the IC50 in data set [5] is 15 µg/mL (≈ 22.7 µM). For the same molecule, in data set [6], the inhibition at 2 µg/mL came to 8.39%, the inhibition at 20 µg/mL stood at 98.6% and the IC50 turned out to be 9.74 µg/mL (≈ 14.8 µM).
In the case of `CC1(C)C2CC[C@]3(C)[C@H](C(=O)C=C4[C@@H]5C[C@@](C)(C(=O)N6CCOCC6)CC[C@]5(C)CC[C@]43C)[C@@]2(C)CC[C@@H]1OC(=O)Nc1ccc(Cl)c(Cl)c1` (stereo partly drawn) [4a, 3β-(((3,4-dichlorophenyl)carbamoyl)oxy)-30-morpholino-olean-12-ene-11,30-dione], the melting point lay within 292.5 to 293 °C. Moreover, in data set [1], the inhibition at 2 µg/mL turned out to be 0% and the inhibition at 20 µg/mL amounted to 0%. In data set [6], the inhibition at 2 µg/mL came to 8.88% and the inhibition at 20 µg/mL was 18.3%.
Molecule `CC1(C)C2CC[C@]3(C)[C@H](C(=O)C=C4[C@@H]5C[C@@](C)(C(=O)O)CC[C@]5(C)CC[C@]43C)[C@@]2(C)CC[C@@H]1OC(=O)Nc1ccc(Cl)c(Cl)c1` (stereo partly drawn) [3a, 3β-(((3,4-dichlorophenyl)carbamoyl)oxy)-11-oxo-olean-12-en-30-oic acid] yielded a melting point of 260 to 261.4 °C. Further, in data set [1], the inhibition at 2 µg/mL came out at 23.9%, the inhibition at 20 µg/mL amounted to 95.9% and inhibition was half-maximal at 11.2 µg/mL (≈ 17 µM) (IC50). Moreover, the IC50 in data set [2] came out at 11.6 µg/mL (≈ 17.6 µM). Also, in data set [3], the IC50 worked out at 12.3 µg/mL (≈ 18.7 µM). The molecule further registered an IC50 in data set [4] of 9.31 µg/mL (≈ 14.1 µM). It took 11.9 µg/mL (≈ 18.1 µM) to reach half-maximal inhibition in data set [5] (IC50). In addition, in data set [6], the inhibition at 2 µg/mL is 11.3%, the inhibition at 20 µg/mL is 98% and the concentration for half-maximal inhibition (IC50) is 11.4 µg/mL (≈ 17.4 µM).
`CC1(C)C2CC[C@]3(C)[C@H](C(=O)C=C4[C@@H]5C[C@@](C)(C(=O)O)CC[C@]5(C)CC[C@]43C)[C@@]2(C)CC[C@@H]1OC(=O)CN1CCC(C(N)=O)CC1` (stereo partly drawn) [6b, 3β-(2-(4-carbamoylpiperidin-1-yl)acetoxy)-11-oxo-olean-12-en-30-oic acid] displayed a melting point of 283.5 to 285 °C. Besides, in data set [1], the inhibition at 2 µg/mL worked out at 0% and the inhibition at 20 µg/mL was determined as 0%. In data set [6], the inhibition at 2 µg/mL was 0% and the inhibition at 20 µg/mL was determined as 12.3%.
As to `CC1(C(=O)N2CCOCC2)CCC2(C)CCC3(C)C(=CC(=O)C4C5(C)CCC(OC(=O)Nc6ccc(F)cc6)C(C)(C)C5CCC43C)C2C1` (stereo not drawn) [4h, 3β-(((4-fluorophenyl)carbamoyl)oxy)-30-morpholino-olean-12-ene-11,30-dione], the melting point lay in the range of 305.1 to 311.4 °C. In addition, in data set [1], the inhibition at 2 µg/mL came out at 0% and the inhibition at 20 µg/mL is 8.54%. In data set [6], the inhibition at 2 µg/mL is 14.8% and the inhibition at 20 µg/mL turned out to be 30.4%.
In the case of `CC1(C)C2CC[C@]3(C)[C@H](C(=O)C=C4[C@@H]5C[C@@](C)(C(=O)N6CCOCC6)CC[C@]5(C)CC[C@]43C)[C@@]2(C)CC[C@@H]1OC(=O)Nc1cc(Cl)cc(Cl)c1` (stereo partly drawn) [4c, 3β-(((3,5-dichlorophenyl)carbamoyl)oxy)-30-morpholino-olean-12-ene-11,30-dione], the melting point was in the range of 278.2 to 280.3 °C. Besides, in data set [1], the inhibition at 2 µg/mL came out at 0% and the inhibition at 20 µg/mL worked out at 0%. Besides, in data set [6], the inhibition at 2 µg/mL was found to be 7.41% and the inhibition at 20 µg/mL came out at 2.76%.
`CC1(C)C2CC[C@]3(C)[C@H](C(=O)C=C4[C@@H]5C[C@@](C)(C(=O)O)CC[C@]5(C)CC[C@]43C)[C@@]2(C)CC[C@@H]1OC(=O)Nc1ccc(Cl)cc1` (stereo partly drawn) [3d, 3β-(((4-chlorophenyl)carbamoyl)oxy)-11-oxo-olean-12-en-30-oic acid] displayed a melting point of 235.1 to 236.7 °C. Also, in data set [1], the inhibition at 2 µg/mL came out at 9.93% and the inhibition at 20 µg/mL was found to be 55.4%. Besides, in data set [6], the inhibition at 2 µg/mL is 13.7% and the inhibition at 20 µg/mL worked out at 56.2%.
`COc1ccc(NC(=O)O[C@H]2CC[C@@]3(C)C(CC[C@]4(C)[C@@H]3C(=O)C=C3[C@@H]5C[C@@](C)(C(=O)O)CC[C@]5(C)CC[C@]34C)C2(C)C)cc1` (stereo partly drawn) [3m, 3β-(((4-methoxyphenyl)carbamoyl)oxy)-11-oxo-olean-12-en-30-oic acid] came in with a melting point of 264 to 264.8 °C. In data set [1], the inhibition at 2 µg/mL came out at 11.7% and the inhibition at 20 µg/mL is 47.5%. In addition, in data set [6], the inhibition at 2 µg/mL was 12.8% and the inhibition at 20 µg/mL stood at 32.3%.
`CC1(C)C2CC[C@]3(C)[C@H](C(=O)C=C4[C@@H]5C[C@@](C)(C(=O)O)CC[C@]5(C)CC[C@]43C)[C@@]2(C)CC[C@@H]1OC(=O)CN1CCOCC1` (stereo partly drawn) [6a, 3β-(2-morpholinoacetoxy)-11-oxo-olean-12-en-30-oic acid] showed a melting point of 275.3 to 276.4 °C. For the same molecule, in data set [1], the inhibition at 2 µg/mL came to 0% and the inhibition at 20 µg/mL was 0%. In data set [6], the inhibition at 2 µg/mL amounted to 0% and the inhibition at 20 µg/mL amounted to 0%.
For `CC1(C(=O)N2CCOCC2)CCC2(C)CCC3(C)C(=CC(=O)C4C5(C)CCC(OC(=O)Nc6ccc(OC(F)(F)F)cc6)C(C)(C)C5CCC43C)C2C1` (stereo not drawn) [4n, 3β-(((4-(trifluoromethoxy)phenyl)carbamoyl)oxy)-30-morpholino-olean-12-ene-11,30-dione], the melting point lay in the range of 308 to 310.1 °C. Further, in data set [1], the inhibition at 2 µg/mL worked out at 0% and the inhibition at 20 µg/mL was 0%. Also, in data set [6], the inhibition at 2 µg/mL came out at 7.12% and the inhibition at 20 µg/mL was 40.2%.
With `Cc1ccc(NC(=O)O[C@H]2CC[C@@]3(C)C(CC[C@]4(C)[C@@H]3C(=O)C=C3[C@@H]5C[C@@](C)(C(=O)O)CC[C@]5(C)CC[C@]34C)C2(C)C)cc1Cl` (stereo partly drawn) [3f, 3β-(((3-chloro-4-methylphenyl)carbamoyl)oxy)-11-oxo-olean-12-en-30-oic acid], the melting point is 270.7 to 271.6 °C. In addition, in data set [1], the inhibition at 2 µg/mL was 11.4% and the inhibition at 20 µg/mL was 80.2%. Besides, in data set [6], the inhibition at 2 µg/mL was 15.6% and the inhibition at 20 µg/mL was 89.2%.
For the molecule `CC1(C)[C@@H](O)CC[C@]2(C)[C@H]3C(=O)C=C4[C@@H]5C[C@@](C)(C(=O)O)CC[C@]5(C)CC[C@@]4(C)[C@]3(C)CC[C@@H]12` [18β-GA, 18β-glycyrrhetinic acid], the inhibition at 2 µg/mL in data set [1] and in data set [6] was 0% throughout. The inhibition at 20 µg/mL came to 8.41% in data set [1] and 12.9% in data set [6]. Moreover, the IC50 in data set [1], in data set [2], in data set [3], in data set [4], in data set [5] and in data set [6] was over 40 µg/mL in each case.
For the molecule `CC1(C)C2CC[C@]3(C)[C@H](C(=O)C=C4[C@@H]5C[C@@](C)(C(=O)N6CCOCC6)CC[C@]5(C)CC[C@]43C)[C@@]2(C)CC[C@@H]1OC(=O)Nc1ccc(C(F)(F)F)cc1` (stereo partly drawn) [4i, 3β-(((4-(trifluoromethyl)phenyl)carbamoyl)oxy)-30-morpholino-olean-12-ene-11,30-dione], the melting point was in the range of 296.4 to 298 °C. Moreover, in data set [1], the inhibition at 2 µg/mL was determined as 0% and the inhibition at 20 µg/mL was 4.46%. Also, in data set [6], the inhibition at 2 µg/mL is 13.7% and the inhibition at 20 µg/mL was 27.3%.

Source of the values: article PMC6803848, “Exploring New Structural Features of the 18β-Glycyrrhetinic Acid Scaffold for the Inhibition of Anaplastic Lymphoma Kinase” (Molecules, 2019).
